Results: patent US20140377216A1, “ANTICANCER FUSION PROTEIN” (ADAMED SP. Z.O.O., priority 2011, published 2014)
“And” between values parts separate entries of the source, which are not always exact repeats. Equal values may be shown once.

What was measured:
[1] = tested on: human liver cancer HepG2; assay: Liver cancer model, Experiment A: HepG2 xenograft; type: in vivo, Crl:SHO-PrkdcscidHrhr mice; details: 20 mg/kg i.p.
Experimental: (§1) Tumor size was measured using electronic calliper, tumor volume was calculated using the formula: (a^2×b)/2, where a=shorter diagonal of the tumor (mm) and b=longer diagonal of the tumor (mm). Inhibition of tumor growth was calculated using the formula:
(§2) TGI[%](Tumor growth inhibition)=(WT/WC)×100−100%
(§3) wherein WT is the average tumor volume in the treatment group, and WC is the average tumor volume in the control group.
On day 0 Crl:SHO-Prkdc^scidHr^hr mice were grafted subcutaneously (s.c.) in the right flank region with 7×10^6 of HepG2 cells suspended in 0.1 ml of the 3:1 mixture HBSS buffer:Matrigel using syringe with a 0.5×25 mm needle (Bogmark). When tumors reached the size of 64-529 mm^3 (day 25), mice were randomized to obtain the average size of tumors in the group of −230 mm^3 and assigned to treatment groups. The treatment groups were administered with the preparations of fusion protein of the invention of Ex. 16^b (80 mg/kg) and rhTRAIL114-281 (50 mg/kg) as a comparison and reference compound 5-FU (5-Fluorouracil, Sigma-Aldrich) (20 mg/kg). The preparations were administered intravenously (i.v.) six times every second day, 5-FU was applied intraperitoneally (i.p.). The control group received formulation buffer.
When the therapeutic group reached the average tumor size of ˜1000 mm^3, mice were sacrificed by cervical dislocation.

[2] = tested on: human liver cancer PLC/PRF/5; assay: Liver cancer model, Experiment B: PLC/PRF/5 xenograft; type: in vivo, Crl:SHO-PrkdcscidHrhr mice; details: 30 mg/kg i.p., schedule (q1dx5)×2, 43th day
Experimental: as §1, §2, §3
On day 0 Crl:SHO-Prkdc^scidHr^hr mice were grafted subcutaneously (s.c.) in the right flank region with 7×10^6 of PLC/PRF/5 cells suspended in 0.1 ml of the 3:1 mixture HBSS buffer:Matrigel using syringe with a 0.5×25 mm needle (Bogmark). When tumors reached the size of 72-536 mm^3 (day 29), mice were randomized to obtain the average size of tumors in the group of ˜205 mm^3 and assigned to treatment groups. The treatment groups were administered with the preparations of fusion protein of the invention of Ex. 16^b (50 mg/kg) and rhTRAIL114-281 (50 mg/kg) as a comparison and reference compound 5-FU (5-Fluorouracil, Sigma-Aldrich) (30 mg/kg). The preparations were administered intravenously (i.v.) six times every second day, except 5-FU, which was applied intraperitoneally (i.p.) in the schedule (q1dx5)×2. The control group received formulation buffer.
When an experimental group reached the average tumor size of ˜1000 mm^3, mice were sacrificed by cervical dislocation.

[3] = tested on: pancreatic carcinoma MIA PaCa-2; assay: Pancreas cancer model, Experiment B: MIA PaCa-2 xenograft; type: in vivo, Crl:SHO-PrkdcscidHrhr mice; details: 50 mg/kg i.p. six times every second day, 61th day
Experimental: as §1, §2, §3
On day 0 Crl:SHO-Prkdc^scidHr^hr mice were grafted subcutaneously (s.c.) in the right flank region with 5×10^6 of MIA PaCa-2 cells suspended in 0.1 ml of 3:1 mixture HBSS buffer:Matrigel using syringe with a 0.5×25 mm needle (Bogmark). When tumors reached the size of 60-398 mm^3 (day 20), mice were randomized to obtain the average size of tumors in the group of ˜170 mm^3 and assigned to treatment groups. The treatment groups were administered with the preparations of fusion protein of the invention of Ex. 16^b (50 mg/kg) and rhTRAIL114-281 (50 mg/kg) as a comparison and reference compound gemcytabine (Gemzar, Eli Lilly) (50 mg/kg). The preparations were administered intravenously (i.v.) six times every second day, gemcytabine was applied intraperitoneally (i.p.) in the same schedule. The control group received formulation buffer.
When a therapeutic group reached the average tumor size of ˜1000 mm^3, mice were sacrificed by the cervical dislocation.

[4] = tested on: A498; assay: MTT cytotoxicity test on A498; type: cell-based, human; details: continuous incubation over 72 h
[5] = tested on: A549; assay: MTT cytotoxicity test on A549; type: cell-based, human; details: continuous incubation over 72 h
[6] = tested on: HUV-EC-C; assay: MTT cytotoxicity test on HUV-EC-C (healthy control cells); type: cell-based, human; details: continuous incubation over 72 h
From the text: (§4) MTT assay is a colorimetric assay used to measure proliferation, viability and cytotoxicity of cells. It consists in decomposition of a yellow tetrazolium salt MTT (4,5-dimethyl-2-thiazolyl)-2,5-diphenyltetrazolium bromide) to the water-insoluble purple dye formazan by mitochondrial enzyme succinate-tetrazolium reductase 1. MTT reduction occurs only in living cells. Data analysis consists in determining IC50 concentration of the protein (in ng/ml), at which the 50% reduction in the number of cells occurs in the population treated compared to control cells. Results were analyzed using GraphPad Prism 5.0 software. The test was performed according to the literature descriptions (Celis, J E, (1998). Cell Biology, a Laboratory Handbook, second edition, Academic Press, San Diego; Yang, Y., Koh, L W, Tsai, J H., (2004); Involvement of viral and chemical factors with oral cancer in Taiwan, Jpn J Clin Oncol, 34 (4), 176-183).
Cell culture medium was diluted to a defined density (10^4-10^5 cells per 100 μl). Then 100 μl of appropriately diluted cell suspension was applied to a 96-well plate in triplicates. […] After stirring, the absorbance was measured at 570 nm (reference filter 690 nm). […]

[7] = tested on: LNCaP; assay: MTT cytotoxicity test on LNCaP; type: cell-based, human; details: continuous incubation over 72 h
[8] = tested on: HT-1080; assay: MTT cytotoxicity test on HT-1080; type: cell-based, human; details: continuous incubation over 72 h
[9] = tested on: UM-UC-3; assay: MTT cytotoxicity test on UM-UC-3; type: cell-based, human; details: continuous incubation over 72 h
[10] = tested on: MDA-MB-435S; assay: MTT cytotoxicity test on MDA-MB-435S; type: cell-based, human; details: continuous incubation over 72 h
[11] = tested on: Panc03.27; assay: MTT cytotoxicity test on Panc03.27; type: cell-based, human; details: continuous incubation over 72 h
[12] = tested on: HepG2; assay: MTT cytotoxicity test on HepG2; type: cell-based, human; details: continuous incubation over 72 h
[13] = tested on: MES-SA/Dx5; assay: MTT cytotoxicity test on MES-SA/Dx5; type: cell-based, human; details: continuous incubation over 72 h
[14] = tested on: COLO 205; assay: MTT cytotoxicity test on COLO 205; type: cell-based, human; details: continuous incubation over 72 h
[15] = tested on: 293; assay: MTT cytotoxicity test on 293; type: cell-based, human; details: continuous incubation over 72 h
[16] = tested on: MCF-7; assay: MTT cytotoxicity test on MCF-7; type: cell-based, human; details: continuous incubation over 72 h
[17] = tested on: JURKAT A3; assay: Cytotoxicity test on JURKAT A3 (nonadherent cells); type: cell-based, human; details: continuous incubation over 72 h, test MTT
From the text: as §4
Cell culture medium was diluted to a defined density (10^4-10^5 cells per 100 μl). […] After stirring, the absorbance was measured at 570 nm (reference filter 690 nm).
EZ4U (Biomedica) test was used for testing cytotoxic activity of the proteins in nonadherent cell lines. […] On this basis IC50 values were determined (as an average of two independent experiments) using the GraphPad Prism 5 software. […]

[18] = tested on: MES-SA; assay: MTT cytotoxicity test on MES-SA; type: cell-based, human; details: continuous incubation over 72 h
[19] = tested on: HCT116; assay: MTT cytotoxicity test on HCT116; type: cell-based, human; details: continuous incubation over 72 h
[20] = tested on: BxPC3; assay: MTT cytotoxicity test on BxPC3; type: cell-based, human; details: continuous incubation over 72 h
[21] = tested on: SK-OV-3; assay: MTT cytotoxicity test on SK-OV-3; type: cell-based, human; details: continuous incubation over 72 h
[22] = tested on: Caki-1; assay: MTT cytotoxicity test on Caki-1; type: cell-based, human; details: continuous incubation over 72 h
[23] = tested on: MES-SA/Mx2; assay: MTT cytotoxicity test on MES-SA/Mx2; type: cell-based, human; details: continuous incubation over 72 h
[24] = tested on: MDA-MB-231; assay: MTT cytotoxicity test on MDA-MB-231; type: cell-based, human; details: continuous incubation over 72 h
[25] = tested on: PLC/PRF/5; assay: MTT cytotoxicity test on PLC/PRF/5; type: cell-based, human; details: continuous incubation over 72 h
[26] = tested on: OV-CAR-3; assay: MTT cytotoxicity test on OV-CAR-3; type: cell-based, human; details: continuous incubation over 72 h
[27] = tested on: HT 144; assay: MTT cytotoxicity test on HT 144; type: cell-based, human; details: continuous incubation over 72 h
[28] = tested on: NCI-H460; assay: MTT cytotoxicity test on NCI-H460; type: cell-based, human; details: continuous incubation over 72 h
[29] = tested on: PANC-1; assay: MTT cytotoxicity test on PANC-1; type: cell-based, human; details: continuous incubation over 72 h
[30] = tested on: MCF10A; assay: MTT cytotoxicity test on MCF10A; type: cell-based; details: continuous incubation over 72 h
[31] = tested on: SK-MES-1; assay: MTT cytotoxicity test on SK-MES-1; type: cell-based, human; details: continuous incubation over 72 h
[32] = tested on: SK-HEP-1; assay: MTT cytotoxicity test on SK-HEP-1; type: cell-based, human; details: continuous incubation over 72 h
[33] = tested on: SW 620; assay: MTT cytotoxicity test on SW 620; type: cell-based, human; details: continuous incubation over 72 h

## O=c1[nH]cc(F)c(=O)[nH]1 [5-FU, 5-Fluorouracil]
[1]
  efficacy against HepG2 tumors: didn't show any efficacy
[2]
  TGI (tumor growth inhibition) relative to the control: 32.2%

## Nc1ccn([C@@H]2O[C@H](CO)[C@@H](O)C2(F)F)c(=O)n1 [gemcytabine]
[3]
  TGI (tumor growth inhibition) relative to the control: 42.6%

## rhTRAIL95-281: TRAIL comparator protein as labelled in cytotoxicity Tables 4-4d (hTRAIL fragment 95-281)
[4]
  IC50: 1.611 µg/mL
[5]
  IC50: >10 µg/mL
[5]; listed as TRAIL 95-281
  IC50: >2 µg/mL
[6]
  IC50: >2 µg/mL
[7]
  IC50: 2.052 µg/mL
[8]
  IC50: >2 µg/mL
[9]
  IC50: 2.242 µg/mL
[10]
  IC50: >2 µg/mL
[11]
  IC50: 0.315 µg/mL
[12]; listed as TRAIL 95-281
  IC50: >2 µg/mL
[12]; listed as rhTRAIL 95-281
  IC50: >10 µg/mL
[13]
  IC50: 0.02915 µg/mL
[13]; listed as TRAIL 95-281
  IC50: 0.02759 µg/mL
[14]
  IC50: 0.05902 µg/mL
[15]
  IC50: >10 µg/mL
[16]
  IC50: >2 µg/mL
[17]
  IC50: >10 µg/mL
[18]
  IC50: >10 µg/mL
[18]; listed as TRAIL 95-281
  IC50: >2 µg/mL
[19]
  IC50: 7.557 µg/mL
[19]; listed as TRAIL 95-281
  IC50: >2 µg/mL
[20]
  IC50: 0.06471 µg/mL and 0.0606 µg/mL
[21]
  IC50: >2 µg/mL
[22]
  IC50: 0.01342 µg/mL
[23]
  IC50: 0.03895 µg/mL
[24]
  IC50: >2 µg/mL
[25]
  IC50: >9 µg/mL
[25]; listed as TRAIL 95-281
  IC50: >2 µg/mL
[26]; listed as TRAIL 95-281
  IC50: 0.963 µg/mL
[26]; listed as rhTRAIL 95-281
  IC50: 0.963 µg/mL
[27]; listed as TRAIL 95-281
  IC50: 1.134 µg/mL
[27]; listed as rhTRAIL 95-281
  IC50: 1.73 µg/mL
[28]
  IC50: 5.889 µg/mL
[28]; listed as TRAIL 95-281
  IC50: 0.438 µg/mL
[29]
  IC50: >10 µg/mL
[29]; listed as TRAIL 95-281
  IC50: >2 µg/mL
[30]
  IC50: >10 µg/mL
[30]; listed as TRAIL 95-281
  IC50: >2 µg/mL
[31]
  IC50: 0.03935 µg/mL
[31]; listed as TRAIL 95-281
  IC50: 0.1007 µg/mL
[32]
  IC50: >2 µg/mL
[33]
  IC50: >2 µg/mL
